Test [1] addresses T1, Arabidopsis thaliana BioDA variant enzymes (Arabidopsis thaliana, UniProt B0F481).
T1 construct: with the predicted N-terminal mitochondrial transit peptide removed; 6xHis-tag (N); thrombin cleavage site (N); made in house; host or cells: E. coli BL21 (DE3) bioA
The experiment in a line: biochemical. The method, then:
(§1) These plasmids were then expressed in E. coli BL21 (DE3) bioA with 50 μg/mL kanamycin and 25 μg/mL chloramphenicol selection. Overnight cultures grown at 37° C. were used to inoculate 8×500 mL AIM in shake flasks at a ratio of 1:100. Cultures were grown at 37° C., 200 rpm for 3.5 hours and then overnight at 20° C. Cells were harvested by centrifugation for 30 minutes at 10 000 g. Cells were stored at −80° C. until extraction. 30 g of cell pellet from was thawed in 120 mL of IMAC buffer A (20 mM HEPES pH7.5, 25 mM imidazole, 500 mM sodium chloride, 0.15 mM pyridoxal phosphate, 0.5 mM TCEP, 1× complete Protease Inhibitor Tablet (Roche)). The resuspension was passed through a cell disrupter at 18 000 PSI and centrifuged at 50 000 g for 25 minutes at 4° C. The His-tagged BIO3-BIO1 protein was purified from the extract supernatant on an AKTA avant chromatography system (Cytiva) using a HisTrap FF column and eluted in IMAC buffer B ((20 mM HEPES pH7.5, 500 mM imidazole, 500 mM sodium chloride, 0.15 mM pyridoxal phosphate, 0.5 mM TCEP) followed by SEC using a HiLoad 26/60 Superdex200 column in SEC buffer (25 mM HEPES pH7.5, 150 mM sodium chloride, 0.15 mM pyridoxal phosphate, 0.5 mM TCEP). Protein concentration was measured and calculated using the absorbance at 280 nm. Extracts were diluted 1 in 4 and 10 uL was analysed by SDS PAGE.
(§2) To measure BIO3-BIO1 mutant enzyme activity in the presence of herbicide, herbicides were incubated with 20 μL of enzyme mix (100 mM EPPS pH 8.6, 0.1 mM pyridoxal phosphate, 0.1 mg/mL BSA, 50 nM BIO3-BIO1 enzyme) for 10 minutes at 20° C. in a well of a 96-well half-area black plate, followed by the addition of 20 μL of substrate mix (final concentration of 100 mM EPPS pH 8.6, 0.1 mM pyridoxal phosphate, 0.1 mg/mL BSA, 100 μM spermidine, 20 μM KAPA, 100 mM NaCO3) and further incubation for 75 minutes at 20° C. The reaction was terminated by the addition of 50 μL of derivatisation mix (final concentration of 250 mM borate NaOH pH 9.4, 3.6 mM o-phthalaldehyde, 7 mM β-mercaptoethanol, 17% (v/v) ethanol, 3.6% (v/v) methanol). The fluorescent product produced by the reaction of DAPA with o-phthalaldehyde and 7 mM β-mercaptoethanol was measured at 470 nm after excitation at 410 nm.
(§3) For IC50 calculations, appropriate dose responses of compounds L, M, B, K and G were used. Calculated percentage inhibitions were then input into GraphPad Prism 7 and IC50s calculated using the non-linear regression (vs. normalised response) equation.

Test [2] has as its target T2, Arabidopsis thaliana BioDA variant enzymes (Arabidopsis thaliana, UniProt B0F481, C388D).
T2 construct: with the predicted N-terminal mitochondrial transit peptide removed; 6xHis-tag (N); thrombin cleavage site (N); made in house; host or cells: E. coli BL21 (DE3) bioA
The experiment in a line: biochemical. The protocol:
as §1, §2, §3

T2 sequence (B0F481 24-833 C388D): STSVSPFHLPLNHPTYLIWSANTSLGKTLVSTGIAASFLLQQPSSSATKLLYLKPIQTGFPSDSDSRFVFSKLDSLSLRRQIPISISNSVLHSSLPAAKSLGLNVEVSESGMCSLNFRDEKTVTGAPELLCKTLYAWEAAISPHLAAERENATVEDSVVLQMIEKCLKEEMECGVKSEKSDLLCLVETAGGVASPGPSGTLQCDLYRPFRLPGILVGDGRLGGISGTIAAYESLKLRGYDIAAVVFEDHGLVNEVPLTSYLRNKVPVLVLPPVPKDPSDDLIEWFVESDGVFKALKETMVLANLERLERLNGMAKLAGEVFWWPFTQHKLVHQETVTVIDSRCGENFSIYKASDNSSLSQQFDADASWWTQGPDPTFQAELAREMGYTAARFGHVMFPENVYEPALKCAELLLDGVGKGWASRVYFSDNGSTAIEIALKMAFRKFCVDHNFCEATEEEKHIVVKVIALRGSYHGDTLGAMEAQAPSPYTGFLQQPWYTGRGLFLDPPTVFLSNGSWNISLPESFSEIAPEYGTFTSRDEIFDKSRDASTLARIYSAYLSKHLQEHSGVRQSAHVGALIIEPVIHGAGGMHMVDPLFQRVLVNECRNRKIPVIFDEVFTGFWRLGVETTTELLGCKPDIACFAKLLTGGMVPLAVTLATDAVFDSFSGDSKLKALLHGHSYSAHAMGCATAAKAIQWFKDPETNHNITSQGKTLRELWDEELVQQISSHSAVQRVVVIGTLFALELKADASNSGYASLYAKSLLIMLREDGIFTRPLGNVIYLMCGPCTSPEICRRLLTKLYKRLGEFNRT

As for `O=C(O)CC1CCC(=O)N1Cc1cccc(F)c1F` (stereo not shown) [Compound G, 2-[1-[(2,3-difluorophenyl)methyl]-5-oxo-pyrrolidin-2-yl]acetic acid], the IC50 amounted to 89 µM in test [1] and 361 µM in test [2].

For the compound `O=C(O)CC1CCC(=O)N1Cc1ccc(F)c(F)c1F` (stereo not shown) [Compound K, 2-[5-oxo-1-[(2,3,4-trifluorophenyl)methyl]pyrrolidin-2-yl]acetic acid], the IC50 in test [1] was 25 µM; in test [2], 386 µM.

For the origin of these results see patent US20260226493A1, “HERBICIDE RESISTANT PLANTS” (SYNGENTA CROP PROTECTION AG, priority 2023, published 2026).
